Data from patent publication US20260256753A1, “USE OF AN OREXIN 2 RECEPTOR AGONIST FOR IMPROVING RESPIRATORY FUNCTION DURING SLEEP” (TAKEDA PHARMACEUTICAL COMPANY LIMITED, priority 2023, published 2026).

Tests used:
Format in all cases: cell-based
[1] = system: hypoglossal motoneurons; assay: Electrophysiologic recording of hypoglossal motoneurons in rat medullary slices; conditions: whole cell patch clamp, versus vehicle control, FIG. 3
Description: (§1) Neonatal rats (postnatal day 1-10) were decapitated and the neuraxis was isolated in a chamber filled with oxygenated artificial cerebrospinal fluid solution (ACSF, in mM: NaCl 125, KCl 2.5, MgCl2 1, CaCl2 2, NaHCO3 25, NaH2PO4 1.25, glucose 25, pH 7.4). The cerebellum was removed, and the brainstem was mounted in the vibratome (VT 1000S; Leica, Milan, Italy) chamber filled with oxygenated gluconate cutting solution (in mM: Kgluconate 130, KCl 15, EGTA 0.2, HEPES 20, glucose 25, kynurenic acid 2, pH 7.4). Transverse medullary slices containing the pre-Bötzinger complex and hypoglossal nucleus were cut (400-600 μm thick). The slices were transferred at room temperature for 1 min in an oxygenated mannitol cutting solution (in mM: D-mannitol 225, glucose 25, KCl 2.5, NaH2PO4 1.25, NaHCO3 26, CaCl2 0.8, MgCl2 8, kynurenic acid 2, pH 7.4). Slices were then transferred in ACSF solution at 30° C. for 30 min and at room temperature for 30 min. At least 30 min prior to the start of recording, each slice was transferred in the recording solution in which the concentration of K+ was raised to 9 mM and that of Mg2+ was decreased to 0.5 mM to ensure the production of long-term and stable rhythm. […] Signals were acquired using Clampex 10.6 software (Axon, Molecular Devices, CA, USA) at a sampling rate of 10-20 kHz and filtered at 2-10 kHz using an 8-pole Bessel filter built within the software and analyzed using Clampfit 10.6 software (pClamp 10.6; Axon, Molecular Devices). […] Bursts were then automatically detected, and burst frequency was measured.
(§2) To evaluate the effects of vehicle (0.1% DMSO) on neuronal activities, after 5 min of stabilization, the neuronal activities under basal condition was recorded for 2-12 min, followed by recording in the presence of vehicle (0.1% DMSO) for 30 min. […]

[2] = system: phrenic motoneurons; assay: Electrophysiologic recording of phrenic motoneurons in rat isolated brainstem-spinal cord preparations; conditions: C3-5 ventral root, versus vehicle control, FIG. 2
Experimental: Neonatal (postnatal day 1-4) rats were decapitated, and the brainstem-spinal cord was dissected in a bath containing ACSF. The cerebellum and pons were ablated. At least 30 min prior to the start of recording, the tissue was transferred in the recording solution in which the concentration of K+ was raised to 5 mM and that of Mg2+ was decreased to 0.5 mM to ensure production of long-term and stable rhythm (modified ACSF, in mM: NaCl 125, MgCl2 0.5, KCl 5, CaCl2 1, NaHCO3 25, NaH2PO4 1.25, glucose 30, pH 7.4). The tissues were glued on coverslips and transferred to a recording chamber and continuously perfused at 27±2° C. with mACSF at a flow rate of 2.3±0.2 mL/min. Activity of phrenic motoneurons was measured in electrophysiological recordings from C3-5 ventral root, outputs of phrenic motoneurons (J. J. Greer, J. C. Smith, J. L. Feldman, Respiratory and locomotor patterns generated in the fetal rat brain stem-spinal cord in vitro, J Neurophysiol 67 (4) (1992) 996-9; J. C. Smith, J. J. Greer, G. S. Liu, J. L. Feldman, Neural mechanisms generating respiratory pattern in mammalian brain stem-spinal cord in vitro. I. Spatiotemporal patterns of motor and medullary neuron activity, J Neurophysiol 64 (4) (1990) 1149-69), using a glass suction electrode. […] The rectification and integration was used for quantification of the activities of phrenic motoneurons because the spontaneous bursts detected in voltage signals are consisting of multiple positive and negative voltages from baseline (T. Sugita, et al.). […] Bursts were then automatically detected, and burst frequency was measured.
To evaluate the effects of vehicle (0.1% DMSO) on neuronal activities, after 5 min of stabilization, the neuronal activities under basal condition were recorded for 2-20 min, followed by recording with vehicle (0.1% DMSO) for 30-40 min. […] As vehicle (0.1% DMSO) had no significant effects on burst frequency of phrenic neurons, potential of drugs was assessed under vehicle (0.1% DMSO). […]

[3] = system: neurons in the pre-Bötzinger complex; assay: Electrophysiologic recording of neurons in the pre-Bötzinger complex in rat medullary slices; conditions: whole cell patch clamp, versus vehicle (0.1% DMSO) control, FIG. 1
Description: as §1, §2

CC(C)(O)C(=O)N1CC(F)(F)[C@H](NS(C)(=O)=O)[C@@H]1Cc1cccc(-c2cc(F)cc(F)c2)c1F [Compound C, N-{(2S,3R)-4,4-difluoro-1-(2-hydroxy-2-methylpropanoyl)-2-[(2,3′,5′-trifluoro[1,1′-biphenyl]-3-yl)methyl]pyrrolidin-3-yl}methanesulfonamide]
increased burst frequency: burst frequency of hypoglossal motoneurons [1] | burst frequency of phrenic motoneurons [2] | burst frequency in neurons in the pre-Bötzinger complex [3]

COC(=O)N1CCC[C@H](NS(C)(=O)=O)[C@@H]1CO[C@H]1CC[C@@H](c2ccccc2)CC1 (relative stereo) [Compound A, methyl(2R,3S)-3-((methylsulfonyl)amino)-2-(((cis-4-phenylcyclohexyl)oxy)methyl) piperidine-1-carboxylate]
increased burst frequency: burst frequency of hypoglossal motoneurons [1] | burst frequency of phrenic motoneurons [2] | burst frequency in neurons in the pre-Bötzinger complex [3]
